What was measured:
[1] = Absorption and emission spectra, fluorescence quantum efficiency in EtOH, PBS and lipid vesicles (MLV); assay type: physicochemical
Protocol: FIGS. 2A-2C are plots showing absorption and emission spectra of 2a, in comparison with ElectroFluor630, in various solvent environments: MLV, EtOH, and PBS. Multilamellar lipid vesicle suspension (MLV) was prepared by sonicating soybean phosphatidylcholine in PBS buffer (2 mg/mL) to mimic the cell membrane environment. The emission spectra in ethanol and PBS buffer were scaled 10 and 20 times respectively relative to the emission spectra in MLV. Excitation wavelength is 580 nm for emission spectra.
All chemicals were purchased from commercial sources (Sigma Aldrich, Acros, TCI America, Combi-Blocks, and others) and used without further purification. Column chromatography was generally performed on COMBIFLASH NextGen 300 using normal phase silica columns except that for some final dye products amine silica columns were used. Thin layer chromatography (TLC) was carried out on EM 60 F-254 plastic TLC plates. NMR spectra were recorded on Varian 400 MHz, 500 MHz, and 800 MHz instruments at the UConn Heath Structural Biology Facility. All spectra are referenced internally to TMS or residual solvent signals. Electrospray ionization (ESI) high-resolution mass spectra (HRMS) were obtained on a QStar Elite (AB Sciex) at the Department of Chemistry, University of Connecticut. UV/Vis absorption spectra were recorded on a UV-Visible spectrophotometer (Shimadzu, UV-1601PC) and fluorescence emission spectra on a Horiba Fluorolog spectrofluorometer (Horiba, Inc., Edison, NJ). Fluorescence quantum yield for dyes was determined by a relative method using Rhodamine 6G (excited at 480 nm, FQY=0.95 in EtOH) or cresyl violet (excited at 580 nm, FQY=0.54 in MeOH) as the references.
Absorbance and the fluorescence properties of the new VSDs were determined. The absorption and emission spectra for 2a, together with ElectroFluor630, in aqueous buffer (PBS), ethanol, and when intercalated in the membrane of lipid vesicles are shown in FIGS. 2A-C. […] This is particularly advantageous for fluorescence imaging because background fluorescence from unbound dye is negligible. Another characteristic of the hemicyanine VSDs that is preserved by 2a in FIGS. 2A-C is the large Stokes shift between the excitation and emission maxima. 125 nm for the membrane-bound dye. This is also a benefit for fluorescence detection and imaging, as the fluorescence can be readily filtered from scattered exciting light. The broad wavelength window afforded by the spectra is also an important benefit for the design of experiments with multiple fluorescent sensors. For comparative purposes, certain VSDs are shown below.
As expected, the spectra are largely insensitive to alkyl substitution. Table 1 also includes data for ElectroFluor630 (aka Di-4-ANEQ (F) PTEA) for comparison. The absorption maxima of 2a in ethanol (EtOH), aqueous buffer (PBS) and when bound to lipid membranes (multilamellar vesicles, MLV) are red shifted by 77 nm, 63 nm and 63 nm, respectively, relative to ElectroFluor630, which is isostructural to 2a. […] The absorption and emission spectra of 2a, 2b, and 2c are all shifted to the red by 50-65 nm relative to ElectroFluor630.

[2] = Voltage sensitivity on voltage-clamped hemispherical lipid bilayer; conditions: long pass emission filter
Source text: It is known that optimal voltage sensitivity can be obtained by measuring the compounds on a voltage-clamped hemispherical bilayer apparatus. The apparatus can include a patch-clamp amplifier, such as a HEKA EPC-8 patch-clamp amplifier. Measurements can be obtained by stepping the membrane potential between two different potentials for a set time lapse. such as, for example, −110 and −60 mV every 10 ms.
Testing VSDs in a voltage-clamped hemispherical lipid bilayer allows one to determine the sensitivity of the VSDs as a function of excitation wavelength. This system has a Teflon tube filled with KCl and is immersed in a KCl solution in a cuvette. A lipid bubble is blown at the tip of the tube and spontaneously forms a bilayer membrane. The VSD to be tested is introduced on one side of the bilayer, usually in the cuvette. Electrodes in the tube and in the cuvette allow the imposition of a voltage across the membrane and a tungsten lamp coupled to a monochromator allows excitation wavelength dependence of the fluorescence response to voltage steps to be determined. This screening approach has allows for the comparison of the efficacy of newly developed VSDs in a well-controlled, consistent manner and to also determine excitation and emission wavelengths with optimal.
Voltage sensitivities of 2a as a function of voltage is shown in FIG. 3A for excitation at 730 nm and 570 nm. The voltage response is linear over the range of −100 mV to +100 mV; 570 nm is slightly to the blue of the isosbestic point, accounting for the weak but inverted sensitivity at this wavelength. […] This opposite polarity at the blue and red edges underlies the ability to use electrochromic hemicyanine dyes for dual-wavelength ratio imaging. The precise location of the isosbestic point in the excitation wavelength depends on the emission filter used because the emission spectrum is also voltage dependent for hemicyanine dyes.
The magnitude and wavelengths of the optimal voltage sensitivities of all the VSDs on the voltage-clamped hemispherical bilayer are included in the third column of Table 1.

CCCCCCN(CCCCCC)c1ccc2c(c1)OCC(/C=C/c1c(F)c[n+](CCC[N+](CC)(CC)CC)c3ccccc13)=C2.[Br-].[Br-] [2c]
absorption maximum ([1]; in EtOH): 696 nm | absorption maximum ([1]; in MLV (multilamellar lipid vesicles)): 599 nm | absorption maximum ([1]; in PBS): 597 nm | Fluorescence quantum efficiency (FQE) ([1]; in lipid vesicle suspensions): 0.10 | emission maximum ([1]; membrane-bound (MLV)): 734 nm | Ex (excitation wavelength of optimal voltage sensitivity) [2]: 730 nm | Voltage Sensitivity ΔF/F per 100 mV ([2]; magnitude at optimal Ex/Em): 12%

Source: US20260048151A1, “HEMICYANINE PUSH-PULL DYES BASED ON CHROMENE ELECTRON DONORS” (UNIVERSITY OF CONNECTICUT, priority 2022, published 2026)
